In ChEMBL document CHEMBL2074052, “Human organic anion transporters and human organic cation transporters mediate renal antiviral transport” (J Pharmacol Exp Ther, 2002) one finds Km and activity data, which are given here for 3 compounds.

Format in all cases: functional, cell-based
Series [1] concerns the target T1, OAT1 (Solute carrier family 22 member 6) (Homo sapiens, UniProt Q4U2R8).
T1 sequence (Q4U2R8 whole entry): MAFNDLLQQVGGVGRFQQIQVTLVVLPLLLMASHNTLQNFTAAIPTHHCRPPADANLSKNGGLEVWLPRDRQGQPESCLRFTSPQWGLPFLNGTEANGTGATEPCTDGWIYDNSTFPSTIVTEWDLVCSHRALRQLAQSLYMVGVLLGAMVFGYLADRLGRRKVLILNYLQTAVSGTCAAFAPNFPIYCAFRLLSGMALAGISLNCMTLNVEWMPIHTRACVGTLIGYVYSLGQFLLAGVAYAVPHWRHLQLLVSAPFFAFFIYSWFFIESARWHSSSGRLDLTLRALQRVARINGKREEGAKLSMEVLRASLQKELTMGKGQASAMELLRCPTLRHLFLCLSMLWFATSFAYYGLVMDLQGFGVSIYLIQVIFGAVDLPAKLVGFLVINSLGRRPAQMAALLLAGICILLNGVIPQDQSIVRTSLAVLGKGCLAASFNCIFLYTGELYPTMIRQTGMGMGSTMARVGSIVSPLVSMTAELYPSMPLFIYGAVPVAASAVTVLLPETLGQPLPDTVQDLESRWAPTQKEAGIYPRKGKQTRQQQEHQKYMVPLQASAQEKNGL
As to the kind of experiment: TP_TRANSPORTER: uptake in OAT1-expressing S2 cells.

For series [2], the target named is T2, OAT2 (Solute carrier family 22 member 7) (Homo sapiens, UniProt Q9Y694).
T2 sequence (Q9Y694 whole entry): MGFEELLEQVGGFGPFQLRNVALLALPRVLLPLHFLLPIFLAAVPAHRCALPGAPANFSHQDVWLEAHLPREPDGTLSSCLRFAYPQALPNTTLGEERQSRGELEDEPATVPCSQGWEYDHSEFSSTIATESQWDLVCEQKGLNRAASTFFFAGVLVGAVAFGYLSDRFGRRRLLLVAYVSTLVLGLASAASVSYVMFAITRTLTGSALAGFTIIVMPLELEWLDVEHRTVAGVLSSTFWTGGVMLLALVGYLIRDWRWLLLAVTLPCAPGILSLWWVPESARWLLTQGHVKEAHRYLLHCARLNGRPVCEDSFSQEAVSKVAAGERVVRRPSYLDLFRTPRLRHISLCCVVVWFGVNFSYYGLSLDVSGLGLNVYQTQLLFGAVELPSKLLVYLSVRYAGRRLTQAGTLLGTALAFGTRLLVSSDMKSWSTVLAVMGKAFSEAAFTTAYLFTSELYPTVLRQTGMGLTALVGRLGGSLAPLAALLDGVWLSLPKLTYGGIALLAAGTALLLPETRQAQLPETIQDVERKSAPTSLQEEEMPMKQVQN
As to the kind of experiment: TP_TRANSPORTER: inhibition of PGF2alpha uptake (PGF2alpha: 0.005 uM, AZT: 1000 uM) in OAT2-expressing S2 cells. Also noted: scale not given: the % may be the effect or the level left. As to conditions: probe PGF2alpha, read-out: Activity.

For series [3], the target named is T1, OAT1 (Solute carrier family 22 member 6). As to the kind of experiment: TP_TRANSPORTER: inhibition of PAH uptake (PAH: 5 uM, AZT: 1000 uM) in OAT1-expressing S2 cells. As to conditions: mouse, probe PAH, read-out: Activity. On the set-up: scale not given: the % may be the effect or the level left.
For series [4], the target named is T3, OAT3 (Organic anion transporter 3) (Homo sapiens, UniProt Q8TCC7).
T3 sequence (Q8TCC7 whole entry): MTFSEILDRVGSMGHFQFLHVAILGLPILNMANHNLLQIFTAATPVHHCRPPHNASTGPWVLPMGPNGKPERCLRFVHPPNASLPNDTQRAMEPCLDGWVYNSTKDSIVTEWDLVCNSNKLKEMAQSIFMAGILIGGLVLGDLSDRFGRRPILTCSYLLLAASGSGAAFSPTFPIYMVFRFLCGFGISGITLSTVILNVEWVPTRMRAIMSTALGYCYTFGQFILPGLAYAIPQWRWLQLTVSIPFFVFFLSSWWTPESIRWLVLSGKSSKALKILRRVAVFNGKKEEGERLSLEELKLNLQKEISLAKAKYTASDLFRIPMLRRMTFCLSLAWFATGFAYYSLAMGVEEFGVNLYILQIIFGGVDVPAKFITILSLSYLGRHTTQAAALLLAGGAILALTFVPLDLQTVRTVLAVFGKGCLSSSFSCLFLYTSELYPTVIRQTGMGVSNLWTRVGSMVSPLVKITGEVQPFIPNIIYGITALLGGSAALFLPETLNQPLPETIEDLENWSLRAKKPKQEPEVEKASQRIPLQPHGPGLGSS
Kind of series: TP_TRANSPORTER: inhibition of E1S uptake (E1S: 0.05 uM, AZT: 1000 uM) in OAT3-expressing S2 cells. Also noted: scale not given: the % may be the effect or the level left. As to conditions: mouse, probe E1S, read-out: Activity.

Series [5] has as its target T4, OAT4 (Solute carrier family 22 member 11) (Homo sapiens, UniProt Q9NSA0).
T4 sequence (Q9NSA0 whole entry): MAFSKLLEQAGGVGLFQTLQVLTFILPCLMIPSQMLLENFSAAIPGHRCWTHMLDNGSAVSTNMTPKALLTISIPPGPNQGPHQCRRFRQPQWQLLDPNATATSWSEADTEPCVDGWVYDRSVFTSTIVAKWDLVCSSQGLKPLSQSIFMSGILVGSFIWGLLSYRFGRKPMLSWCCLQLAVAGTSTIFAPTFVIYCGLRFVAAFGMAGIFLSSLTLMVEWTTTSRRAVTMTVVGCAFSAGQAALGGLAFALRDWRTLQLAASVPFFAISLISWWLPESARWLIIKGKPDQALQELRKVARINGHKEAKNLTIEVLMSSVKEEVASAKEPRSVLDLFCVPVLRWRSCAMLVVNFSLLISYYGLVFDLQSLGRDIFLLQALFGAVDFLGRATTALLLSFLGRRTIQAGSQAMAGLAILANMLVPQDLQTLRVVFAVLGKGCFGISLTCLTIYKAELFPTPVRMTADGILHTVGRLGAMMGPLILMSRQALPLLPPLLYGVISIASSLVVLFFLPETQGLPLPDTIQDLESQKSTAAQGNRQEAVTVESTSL
Kind of series: TP_TRANSPORTER: uptake in OAT4-expressing S2 cells.

Series [6] addresses T2, OAT2 (Solute carrier family 22 member 7). As to the kind of experiment: TP_TRANSPORTER: uptake in OAT2-expressing S2 cells.
Series [7] concerns the target T4, OAT4 (Solute carrier family 22 member 11). As to the kind of experiment: TP_TRANSPORTER: inhibition of E1S uptake (E1S: 0.05 uM, AZT: 1000 uM) in OAT4-expressing S2 cells. The settings on record: mouse, probe E1S, read-out: Activity. On the set-up: scale not given: the % may be the effect or the level left.
Series [8] deals with T3, OAT3 (Organic anion transporter 3). As to the kind of experiment: TP_TRANSPORTER: uptake in OAT3-expressing S2 cells. The settings on record: mouse.
Series [9] shares this target. As to the kind of experiment: TP_TRANSPORTER: inhibition of E1S uptake (E1S: 0.05 uM, GCV: 1000 uM) in OAT3-expressing S2 cells. Also noted: scale not given: the % may be the effect or the level left. As to conditions: mouse, probe E1S, read-out: Activity.
Series [10] addresses T2, OAT2 (Solute carrier family 22 member 7). As to the kind of experiment: TP_TRANSPORTER: inhibition of PGF2alpha uptake (PGF2alpha: 0.005 uM, GCV: 1000 uM) in OAT2-expressing S2 cells. Also noted: scale not given: the % may be the effect or the level left. As to conditions: probe PGF2alpha, read-out: Activity.
Series [11] deals with T1, OAT1 (Solute carrier family 22 member 6). As to the kind of experiment: TP_TRANSPORTER: inhibition of PAH uptake (PAH: 5 uM, GCV: 1000 uM) in OAT1-expressing S2 cells. On the set-up: scale not given: the % may be the effect or the level left. As to conditions: mouse, probe PAH, read-out: Activity.
Series [12] has as its target T5, OCT1 (Solute carrier family 22 member 1) (Homo sapiens, UniProt O15245).
T5 sequence (O15245 whole entry): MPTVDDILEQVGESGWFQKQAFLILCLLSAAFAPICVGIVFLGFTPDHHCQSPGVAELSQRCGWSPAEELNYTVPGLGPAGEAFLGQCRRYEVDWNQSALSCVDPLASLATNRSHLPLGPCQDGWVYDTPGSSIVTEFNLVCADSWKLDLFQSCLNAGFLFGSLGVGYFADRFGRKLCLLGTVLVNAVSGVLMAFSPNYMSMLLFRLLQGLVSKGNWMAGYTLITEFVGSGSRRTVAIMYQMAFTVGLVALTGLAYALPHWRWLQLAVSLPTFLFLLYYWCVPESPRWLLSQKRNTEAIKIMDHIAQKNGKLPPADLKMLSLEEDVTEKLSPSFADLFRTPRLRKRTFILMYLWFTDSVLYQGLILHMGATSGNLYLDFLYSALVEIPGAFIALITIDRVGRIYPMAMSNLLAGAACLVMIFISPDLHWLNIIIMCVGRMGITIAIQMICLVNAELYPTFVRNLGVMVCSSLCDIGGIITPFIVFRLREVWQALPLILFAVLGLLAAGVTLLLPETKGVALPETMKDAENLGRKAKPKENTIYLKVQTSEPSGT
As to the kind of experiment: TP_TRANSPORTER: inhibition of TEA uptake (TEA: 5 uM, GCV: 1000 uM) in OCT1-expressing S2 cells. Also noted: scale not given: the % may be the effect or the level left. As to conditions: probe TEA, read-out: Activity.

Series [13] has as its target T1, OAT1 (Solute carrier family 22 member 6). Kind of series: TP_TRANSPORTER: inhibition of PAH uptake (PAH: 5 uM, ACV: 1000 uM) in OAT1-expressing S2 cells. On the set-up: scale not given: the % may be the effect or the level left. As to conditions: probe PAH, read-out: Activity.
Series [14] has as its target T5, OCT1 (Solute carrier family 22 member 1). Kind of series: TP_TRANSPORTER: inhibition of TEA uptake (TEA: 5 uM, ACV: 1000 uM) in OCT1-expressing S2 cells. Also noted: scale not given: the % may be the effect or the level left. As to conditions: probe TEA, read-out: Activity.
Series [15] deals with T3, OAT3 (Organic anion transporter 3). Kind of series: TP_TRANSPORTER: inhibition of Estrone sulfate uptake (E1S: 0.05 uM, ACV: 1000 uM) in OAT3-expressing S2 cells. On the set-up: scale not given: the % may be the effect or the level left. As to conditions: mouse, probe Estrone sulfate (E1S), read-out: Activity.

Usually Km stands for the substrate concentration at which the rate is half of its maximum. Turning to `Cc1cn([C@H]2C[C@H](N=[N+]=[N-])[C@@H](CO)O2)c(=O)[nH]c1=O` [ZIDOVUDINE], the Km in series [1] came out at 45.9 µM; in [5], 152 µM; in [6] it was 26.8 µM; in series [8], 145 µM. The activity at 1000 µM in series [2] was 76.7%; in series [3], 30.7%; in series [4], 70%; in series [7], 84.2%.
On to `Nc1nc(O)c2ncn(COC(CO)CO)c2n1` [GANCICLOVIR], for which the activity at 1000 µM in series [9] came to 74.3%; in series [10], 63.3%; in series [11] it was 87.1%; in series [12], 88.3%.
As for `Nc1nc2c(ncn2COCCO)c(=O)[nH]1` [ACYCLOVIR], the activity at 1000 µM in series [13] worked out at 67%; in series [14], 88.4%; in series [15] it was 64.3%.
